{
  "source": "patent US4288441A",
  "about": "“Nicotinoyl pantetheine derivatives” (priority 1980, dated 1981)",
  "key": {"[1]": {"experiment": "Plasma nicotinic acid levels in rats after oral administration (Table II)", "from_the_text": "(§4) On the other hand, upon oral administration of each compound, i.e., nicotinic acid and S-nicotinate to groups of rats, the plasma nicotinic acid levels in the rats were studied. […] The other experimental conditions were the same as those described above."}, "[2]": {"conditions": "rat, in vivo, po", "from_the_text": "as §4"}, "[3]": {"experiment": "Acute toxicity in mice (Table IV)", "conditions": "mouse, in vivo", "protocol": "The acute toxicity test was conducted as follows. STD ddY strain mice, weight male 17.2-20.5 g, female 17.5-19.7 g, were used. The mice were fed on forage and water freely and kept at constant environmental conditions (temperature 23±1° C., relative humidity 55±5%, and 12 hours light) before the test. Samples of S-nicotinate water solutions (0.3 ml/10 g of body weight) were administered to each group (n=10) of mice in order to achieve levels of 5 g/kg and 10 g/kg, respectively."}, "in vivo": {"experiment": "in vivo", "conditions": "rat, po, 62.2 mg/kg", "from_the_text": "as §4"}, "serum triglyceride": {"test_system": "serum triglyceride", "experiment": "Serum levels of triglyceride in rats after oral administration (Table I)", "format": "in vivo", "conditions": "for Serum level of triglyceride (TG): oral, n=6, nicotinic acid 20 mg/kg, S-nicotinate 62.2 mg/kg (equimolar)", "protocol": "(§1) At the time specified in Table I, the rats were killed by pentobarbital (30 mg/kg, i.p.) anesthesia and blood was withdrawn by the carotid. The serum separated from the blood samples was assayed for free fatty acid (according to a variation of the Elphic method) and triglyceride (according to the enzyme method)."}, "serum free fatty acid": {"test_system": "serum free fatty acid", "experiment": "Serum levels of free fatty acid in rats after oral administration (Table I)", "format": "in vivo", "conditions": "for Serum level of free fatty acid (FFA): oral, n=6, nicotinic acid 20 mg/kg, S-nicotinate 62.2 mg/kg (equimolar)", "protocol": "as §1"}, "serum free fatty acids": {"test_system": "serum free fatty acids", "experiment": "Serum free fatty acids in alcoholic fatty liver rats (Table III)", "format": "in vivo, male Sprague-Dawly rats", "conditions": "0.1 mmole/kg/day for five days, n=6", "protocol": "(§2) The effects of S-nicotinate were confirmed by an experiment in which alcoholic fatty liver rats were used according to the method described by A. Hosein et al., Biochemical Pharmacology, 24, page 1859, 1975.\n(§3) In this experiment, male Sprague-Dawly rats, age 6 weeks, were treated as follows. The rats received 10 ml of 40% ethanol solution per kg of body weight for 3 days (at 10:00 AM on the day of sacrifice and at 4:00 PM on the other days) by gastric intubation. S-nicotinate was suspended in 0.5 (v/v)% Tween 80 aqueous solution and administered for five days (at 9:00 AM) including the day of sacrifice. After sacrificing the rats (at 1:00 PM), the total cholesterol was measured according to the Bennie Zak method (American Journal of Clinical Pathology, 27, page 583, 1957) and free fatty acid was measured by the method described by K. Itaya et al., Journal of Lipid Research, 6, page 16, 1965."}, "serum cholesterol": {"test_system": "serum cholesterol", "experiment": "Serum cholesterol in alcoholic fatty liver rats (Table III)", "format": "in vivo, male Sprague-Dawly rats", "conditions": "0.1 mmole/kg/day for five days, n=6", "protocol": "as §2, §3"}, "[4]": {"conditions": "cited from earlier work"}, "[5]": {"conditions": "30 min, * = significant difference from control"}, "[6]": {"conditions": "rats, compared with nicotinic acid"}},
  "note": "Like-named read-outs stand apart in the source and are kept apart here.",
  "data": [
    {"compound": "CC(C)(CO)C(O)C(=O)NCCC(=O)NCCSC(=O)c1cccnc1", "note": "(stereo not shown) [S-nicotinate, 2,4-dihydroxy-N-[2-((2-mercaptoethyl)carbamoyl)ethyl]-3,3-dimethylbutyramide S-nicotinate]", "values": [
      {"measurement": "Activity in maintaining a satisfactory level of free nicotinic acid in the blood, in words", "setting": "[1]; S-nicotinate itself vs nicotinic acid, inferred from experimental results", "value": "has the same activity as nicotinic acid itself"},
      {"measurement": "Plasma nicotinic acid at 120 minutes, in words", "setting": "[2]", "value": "essentially disappeared"},
      {"measurement": "LD50", "setting": "[3]; iv", "value": 1600, "unit": "mg/kg"},
      {"measurement": "LD50", "setting": "[3]; po", "value": "> 10000", "unit": "mg/kg"},
      {"measurement": "concentration at 0.5 h", "setting": "in vivo", "value": "5200 ± 300", "unit": "ng/mL"},
      {"measurement": "concentration at 1 h", "setting": "in vivo", "value": "3300 ± 300", "unit": "ng/mL"},
      {"measurement": "concentration at 1.5 h", "setting": "in vivo", "value": "700 ± 400", "unit": "ng/mL"},
      {"measurement": "Serum level of triglyceride (TG)", "setting": "serum triglyceride; [5]", "value": "43.7 ± 5.7", "unit": "mg/dL"},
      {"measurement": "Serum level of triglyceride (TG)", "setting": "serum triglyceride; 60 min", "value": "22.2 ± 1.1", "unit": "mg/dL"},
      {"measurement": "Serum level of triglyceride (TG)", "setting": "serum triglyceride; 90 min", "value": "25.5 ± 3.3", "unit": "mg/dL"},
      {"measurement": "Serum level of triglyceride (TG)", "setting": "serum triglyceride; 120 min", "value": "29.2 ± 1.6", "unit": "mg/dL"},
      {"measurement": "Serum level of triglyceride (TG)", "setting": "serum triglyceride; 360 min", "value": "33.5 ± 8.0", "unit": "mg/dL"},
      {"measurement": "Effect on serum level of triglyceride, in words", "setting": "serum triglyceride; [6]", "value": "decreases serum levels of free fatty acid and triglyceride in rats as well as nicotinic acid does"},
      {"measurement": "Serum level of free fatty acid (FFA)", "setting": "serum free fatty acid; [5]", "value": "0.13±0.01", "unit": "mEq/1"},
      {"measurement": "Serum level of free fatty acid (FFA)", "setting": "serum free fatty acid; 60 min", "value": "0.13±0.01", "unit": "mEq/1"},
      {"measurement": "Serum level of free fatty acid (FFA)", "setting": "serum free fatty acid; 90 min", "value": "0.15±0.03", "unit": "mEq/l"},
      {"measurement": "Serum level of free fatty acid (FFA)", "setting": "serum free fatty acid; 120 min", "value": "0.20±0.04", "unit": "mEq/l"},
      {"measurement": "Serum level of free fatty acid (FFA)", "setting": "serum free fatty acid; 360 min", "value": "0.46±0.05", "unit": "mEq/l"},
      {"measurement": "Effect on serum level of free fatty acid, in words", "setting": "serum free fatty acid; [6]", "value": "decreases serum levels of free fatty acid and triglyceride in rats as well as nicotinic acid does"},
      {"measurement": "Serum free fatty acids", "setting": "serum free fatty acids", "value": "236±21.33", "unit": "μEq/l"},
      {"measurement": "Serum cholesterol", "setting": "serum cholesterol", "value": "79.0 ± 4.23", "unit": "mg/dL"}
    ]},
    {"compound": "O=C(O)c1cccnc1", "note": "[nicotinic acid]", "values": [
      {"measurement": "Plasma nicotinic acid level, in words", "setting": "[1]; 10 mg/kg nicotinic acid, at 60 minutes", "value": "almost a trace amount or was not detectable"},
      {"measurement": "Plasma nicotinic acid level", "setting": "[1]; 360 min, oral, nicotinic acid 20 mg/kg, S-nicotinate 62.2 mg/kg", "value": "0 ± 0", "unit": "µg/mL"},
      {"measurement": "Cmax at 0.5 h", "setting": "[1]; rat, plasma, po, 10 mg/kg", "value": 8300, "unit": "ng/mL"},
      {"measurement": "Tmax", "setting": "[1]; rat, plasma, po, 10 mg/kg", "value": 30, "unit": "min"},
      {"measurement": "concentration at 0.5 h", "setting": "[1]; rat, plasma, po, 20 mg/kg", "value": "42800 ± 1200", "unit": "ng/mL"},
      {"measurement": "concentration at 1 h", "setting": "[1]; rat, plasma, po, 20 mg/kg", "value": "22200 ± 1600", "unit": "ng/mL"},
      {"measurement": "concentration at 1.5 h", "setting": "[1]; rat, plasma, po, 20 mg/kg", "value": "6700 ± 1600", "unit": "ng/mL"},
      {"measurement": "concentration at 2 h", "setting": "[1]; rat, plasma, po, 20 mg/kg", "value": "400 ± 300", "unit": "ng/mL"},
      {"measurement": "Plasma nicotinic acid at 120 minutes, in words", "setting": "[1]; rats, 120 min after oral administration", "value": "essentially disappeared"},
      {"measurement": "Rebound effect in the plasma nicotinic acid level", "setting": "[1]; rats, compared with S-nicotinate", "value": "far larger rebound effect"},
      {"measurement": "Effect on blood lipids", "setting": "[4]; cholesterol, triglycerides, phospholipids and free fatty acids in blood, well known", "value": "reduces the levels of lipids such as cholesterol, triglycerides, phospholipids and free fatty acids in blood"},
      {"measurement": "Side-effects at higher doses", "setting": "[4]; clinical treatment, higher doses", "value": "flushing of the face, itching and gastrointestinal impediments"},
      {"measurement": "Nicotinic acid level in the blood, in words", "setting": "[4]; clinical treatment, normal dosage levels", "value": "rapidly decreases"},
      {"measurement": "Vasodilator effect", "setting": "[4]; well known", "value": "vasodilator effect"},
      {"measurement": "Serum level of triglyceride (TG)", "setting": "serum triglyceride; [5]", "value": "35.0 ± 2.3", "unit": "mg/dL"},
      {"measurement": "Serum level of triglyceride (TG)", "setting": "serum triglyceride; 60 min", "value": "18.0 ± 0.7", "unit": "mg/dL"},
      {"measurement": "Serum level of triglyceride (TG)", "setting": "serum triglyceride; 90 min", "value": "21.2 ± 2.5", "unit": "mg/dL"},
      {"measurement": "Serum level of triglyceride (TG)", "setting": "serum triglyceride; 120 min", "value": "26.2 ± 1.1", "unit": "mg/dL"},
      {"measurement": "Serum level of triglyceride (TG)", "setting": "serum triglyceride; 360 min", "value": "32.5 ± 3.1", "unit": "mg/dL"},
      {"measurement": "Serum level of free fatty acid (FFA)", "setting": "serum free fatty acid; [5]", "value": "0.19±0.09", "unit": "mEq/1"},
      {"measurement": "Serum level of free fatty acid (FFA)", "setting": "serum free fatty acid; 60 min", "value": "0.12±0.01", "unit": "mEq/1"},
      {"measurement": "Serum level of free fatty acid (FFA)", "setting": "serum free fatty acid; 90 min", "value": "0.13±0.02", "unit": "mEq/l"},
      {"measurement": "Serum level of free fatty acid (FFA)", "setting": "serum free fatty acid; 120 min", "value": "0.23±0.07", "unit": "mEq/l"},
      {"measurement": "Serum level of free fatty acid (FFA)", "setting": "serum free fatty acid; 360 min", "value": "0.49±0.04", "unit": "mEq/l"}
    ]},
    {"compound": "pantothenolnicotinate", "values": [
      {"measurement": "Effect on blood cholesterol level", "setting": "[4]; Japanese published patent specification No. 40-18109", "value": "able to decrease the blood cholesterol level"}
    ]}
  ]
}
